Measurements from patent publication US9872853B2, “2,3-dihydro-1H-indole compounds” (Eli Lilly and Company, priority 2016, dated 2018).
pIC50: −log10 of the molar value. Values joined by “and” are separate entries in the source; they are usually repeats but may differ in a detail not shown here. Equal values may be shown once. Read-outs that look alike come from different tables or passages of the source.

Key:
L55 tumors = assay: L55 humanized tumor model with hPBMC challenge; assay type: in vivo; details: for tolerability (body weight): with or without hPBMCs
From the text: Grow the human NSCLC cell line, L55, in RPMI 1640 medium supplemented with 10% fetal bovine serum. Harvest sub-confluent cells with trypsin and rinse twice with growth medium lacking serum. Initiate the growth of subcutaneous tumors by injecting 5×10^6 in a 1:1 mixture of HBSS and MATRIGEL® (BD Biosciences, Franklin Lakes, N.J.) in the rear flank of NOD.Cg-Prkdc^scidI12rg^tm1Wjl/SzJ mice more commonly known as NOD scid gamma chain knockout mice (NSG) mice (The Jackson Laboratory, Bar Harbour, Me.), which lack T cells, B cells, NK cells, and are deficient in cytokine signaling. When the mean tumor volume reaches approximately 200-300 mm^3, randomize the animals by tumor size and body weight and place into their respective treatment groups as indicated. After randomization, challenge tumor-bearing mice with PBS alone (no PBMCs) or with PBS containing 1×10^7 human PBMCs into the tail vein of recipients.
(§1) Capture tumor size and body weight using Study Director. Estimate tumor volume (V) by using the formula: V=0.536×L×W^2 where L=larger measured diameter and W=smaller of the perpendicular diameter. Transform the tumor volume data to a log scale to equalize variance across time and treatment groups. Analyze the log volume data with a two-way repeated measures analysis of variance by time and treatment using the MIXED procedures in SAS software (Version 9.2). The correlation model for the repeated measures is Spatial Power. Compare treated groups to the control group at each time point. Use the MIXED procedure also separately for each treatment group to calculate adjusted means and standard errors at each time point. Both analyses account for the autocorrelation within each animal and for the loss of data that occurs when animals with large tumors are removed from the study early. Calculate relative changes in tumor volume (% T/C) using the tumor volume measurements taken nearest to the last day of dosing with Example 1A, using the formula % T/C=100×ΔT/ΔC, where T=mean tumor volume of the compound treated group, ΔT=mean tumor volume of the compound treated group minus the mean tumor volume on the baseline day, C=mean tumor volume of the control (vehicle) group, and ΔC=mean tumor volume of the control group minus the mean tumor volume on the baseline day. If ΔT<0, then a tumor regression value is calculated instead of % T/C whereby % Regression=100×ΔT/Tinitial such that Tinitial=mean tumor volume on the baseline day.
(§2) Assess antitumor efficacy of Example 1A and LY3300054 alone, or in combination by measuring tumor volume by three dimensional caliper measurements twice a week during the course of the study. Measure body weight twice weekly during the course of the study, as a general indicator of tolerability.
(§3) Formulations for Example 1A and LY3300054: Formulate Example 1A on a weekly basis in 1% HEC/0.25% Tween 80/0.05% Antifoam and store at 4° C. Solublize LY3300054 in phosphate buffered saline and store at 4° C.
Control group(s): For single agent efficacy studies, administer vehicle for Example 1A alone. For combination studies, administer both vehicles used for Example 1A and LY3300054 according to the same schedule for each compound, respectively. For monotherapy groups in combination efficacy studies, treat the animals with the desired compound and the vehicle for the compound not being dosed following the schedule for the non-dosed compound. […]

His6-IDO1 = molecular target: T1, His6-IDO1 (Homo sapiens, UniProt P14902); assay: Binding assay for IDO1: competition with a tritiated spy molecule; details: displacement of 50 nM tritiated spy molecule, four hours, room temperature
T1 construct: purchased Proteros PR-0278
Experimental: Specifically, this assay assesses the ability of test compounds to compete with a tritiated spy molecule 1-(2,4-difluorophenyl)-3-[[1-(3,4,5-tritritiobenzoyl)indolin-5-yl]methyl]urea and allows for the calculation of the binding affinity, IC50.
Competitive Binding of 1-(2,4-Difluorophenyl)-3-[[1-(3,4,5-tritritiobenzoyl)indolin-5-yl]methyl]urea to IDO1
Load 300 nM His6-IDO1 (Proteros, SwissProtID P14902, Cat# PR-0278, batch 19/59, 98 mg/mL in 25 mM MES pH 6.5, 150 mM KCl, purity >95%) diluted in DPBS to each well of nickel coated plate (Sigma, Cat#55563) and incubate overnight at 4° C. Remove unbound proteins by washing plate with 300 μL DPBS four times in BIOTEK® Microplate Washer. Add 100 μL of blocking buffer (0.05% TWEEN® 20/DPBS) per well and incubate for one hour at room temperature to reduce nonspecific binding. While blocking the plate, prepare 50 nM 1-(2,4-difluorophenyl)-3-[[1-(3,4,5-tritritiobenzoyl)indolin-5-yl]methyl]urea (Biocair, Cat# TRQ41455) by diluting in DPBS, and serially dilute unlabeled stock solution 2.5-fold in DMSO to generate an eleven point dilution curve. […] Quantitate total bound and nonspecific binding (NSB) of the 1-(2,4-difluorophenyl)-3-[[1-(3,4,5-tritritiobenzoyl)indolin-5-yl]methyl]urea ligand using a Trilux Microbeta Counter. […]

Colon26 tumors = assay: Mouse syngeneic Colon26 model for colon cancer; assay type: in vivo, BALB/c mice
Experimental: Grow the mouse BALB/c-derived Colon26 colon cancer cell line in RPMI 1640 medium supplemented with 10 mM HEPES, […] sodium pyruvate, and 10% fetal bovine serum. Harvest sub-confluent cells with trypsin and rinse twice with complete growth medium lacking serum. Initiate subcutaneous tumors by injecting 1×10^6 cells resuspended in HBSS in the rear flank of immune-competent BALB/c mice (Envigo, Indianapolis, Ind.). Six days after tumor implantation, randomize animals based on body weight and place into their respective treatment groups using the number of animals per group as indicated.
as §1, §2, §3
Control group(s): For single agent efficacy studies, administer vehicle for Example 1A alone. For combination studies, administer both vehicles used for Example 1A and LY3300054 according to the same schedule for each compound, respectively. For monotherapy groups in combination efficacy studies, treat the animals with the desired compound and the vehicle for the compound not being dosed following the schedule for the non-dosed compound.
Treat female BALB/c mice (n=10) bearing Colon26 tumors with Example 1A twice daily for 21 days by oral gavage at doses of 10, 50, and 100 mg/kg. Start administration of Example 1A six days after tumor implantation, and monitor tumor growth and body weight twice a week for the duration of the treatment period.

IDO1 activity in SKOV3 = molecular target: T2, IDO1 activity in SKOV3 (Homo sapiens, UniProt P14902); assay: Kynurenine production assay (SKOV3); assay type: cell-based; details: SKOV3 cells, 18 hours, MS measurement in media
T2 construct: an ovarian cancer cell line that intrinsically expresses IDO1; host or cells: SKOV3 (in vitro); SKOV3X (Indiana University Research and Technology Center) as intraperitoneal xenograft tumours in athymic nude mice
Experimental: The purpose of this assay is to evaluate the inhibition of the production of kynurenine, N-formyl-kynurenine and the depletion of tryptophan in IDO1 expressing cancer cells and assess whether compounds are overtly toxic to these cells. Exemplary compounds are tested for the inhibition of IDO1 activity in SKOV3 (ATCC, Cat# HTB-77), an ovarian cancer cell line that intrinsically expresses IDO1. Due to IDO1 expression, SKOV3 cells degrade tryptophan with the concomitant production of kynurenine and compounds are tested for their ability to inhibit the production of kynurenine, N-formyl-kynurenine and the depletion of tryptophan. Optionally, overt toxicity of compounds can be assessed by monitoring cell viability.
Plate SKOV3 cells, an IDO1-expressing ovarian cancer cell line, at 20,000 cells per well in 100 μL of McCoys 5A media (Gibco, Cat#16600-082) supplemented with non-essential amino acids (Gibco, Cat#11140-050), 1 mM sodium pyruvate (Gibco, Cat#11360-070), and 10% fetal bovine serum, complete media, in a 96 well tissue culture plate (BD Biosciences). Then, incubate cells for 16 hours in a 37° C. incubator with 5% CO2. […] Optionally, return original plate(s) to the incubator for an additional 24 hours and measure the viability of cells by adding an equal volume of CELLTITER-GLO® (Promega) and measure luminescence in an PERKIN ELMER® EnVision plate reader. […]

T1 sequence (P14902 whole entry): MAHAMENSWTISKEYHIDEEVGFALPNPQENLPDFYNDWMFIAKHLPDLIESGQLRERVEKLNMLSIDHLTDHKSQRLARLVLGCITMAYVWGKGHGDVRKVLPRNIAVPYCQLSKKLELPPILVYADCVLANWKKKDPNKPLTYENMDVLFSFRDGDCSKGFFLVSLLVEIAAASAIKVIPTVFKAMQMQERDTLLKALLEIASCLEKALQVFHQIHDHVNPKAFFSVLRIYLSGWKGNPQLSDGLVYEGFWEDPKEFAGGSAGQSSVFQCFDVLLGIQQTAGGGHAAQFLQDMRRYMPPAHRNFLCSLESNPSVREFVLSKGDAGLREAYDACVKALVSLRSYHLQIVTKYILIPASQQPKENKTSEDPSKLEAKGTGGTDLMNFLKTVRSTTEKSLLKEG
T2 sequence (P14902 whole entry): as above

Compound	effect on tumor growth (L55 tumors; 10 mg/kg intraperitoneal once a week for 4 weeks, with hPBMCs, versus vehicle)	change in tumor volume (% T/C) (L55 tumors; 10 mg/kg intraperitoneal once a week, with hPBMCs, day 37, versus vehicle lacking PBMCs) [%]	tolerability (body weight) (L55 tumors; 10 mg/kg intraperitoneal once a week)	pIC50 (His6-IDO1)	reduction in body weight compared to baseline (Colon26 tumors; 10 mg/kg twice daily, day 20) [%]	reduction in body weight compared to baseline (Colon26 tumors; 50 mg/kg twice daily, day 20) [%]	reduction in body weight compared to baseline (Colon26 tumors; 100 mg/kg twice daily, day 20) [%]	tolerability (body weight changes) (Colon26 tumors; 10, 50 and 100 mg/kg twice daily for 21 days, versus vehicle-treated mice)	tumor growth inhibition (statistics) (Colon26 tumors; only 50 and 100 mg/kg doses, day 20)	tumor growth inhibition (L55 tumors; 75 mg/kg twice daily oral, absence of hPBMCs, versus vehicle without PBMCs)	tolerability (body weight) (L55 tumors; 75 mg/kg twice daily oral)	pIC50 (IDO1 activity in SKOV3; read-out: IC50 for inhibiting N-formyl-kynurenine)	pIC50 (IDO1 activity in SKOV3; read-out: IC50 for inhibiting kynurenine)
LY3300054: an antibody that binds human PD-L1 (SEQ ID NO: 1), comprising a light chain (LC) and a heavy chain (HC)	statistically significant tumor growth inhibition	75.7	No significant tolerability issues	–	–	–	–	–	–	–	–	–	–
C[C@H](NC(=O)c1ccc(F)cc1)c1ccc2c(c1)CCN2C(=O)C1CCOCC1 (single isomer, unassigned; isomer 2) [Example 1B]	–	–	–	> 5.82	–	–	–	–	–	–	–	–	–
C[C@@H](NC(=O)c1ccc(F)cc1)c1ccc2c(c1)CCN2C(=O)C1CCOCC1 (single isomer, unassigned) [Example 1A]	–	–	–	> 5.82 and 7.48	2.5	8	2.5	no significant tolerability issues	statistically (p<0.001) relevant growth inhibition	did not result in significant tumor growth inhibition	No significant tolerability issues	8.15	8.15
